According to publication PMC12302228 (RSC Medicinal Chemistry, 2025):
In brackets after ≈: the same amount, converted by molar mass. Where two headings read alike, the source gives them in different places.

Experiments:
MCF7 = test: Antiproliferative activity, SRB assay; format: cell-based, human; settings: mean ± SEM
M21 = test: Antiproliferative activity, SRB assay; format: cell-based, human; settings: mean ± SEM
HT-29 = test: Antiproliferative activity, SRB assay; format: cell-based, human; settings: mean ± SEM
HT-1080 = test: Antiproliferative activity, SRB assay; format: cell-based, human; settings: read-out: IC50 HT-1080; 48 h of treatment; mean ± SEM
MOLM-13 = test: Antiproliferative activity, MTT assay; format: cell-based, human; settings: read-out: IC50 MOLM-13; 48 h of treatment; mean ± SEM
THP-1 = test: Antiproliferative activity, MTT assay; format: cell-based, human; settings: mean ± SEM
HL-60 = test: Antiproliferative activity, MTT assay; format: cell-based, human; settings: mean ± SEM
physchem = settings: ultrapure water, 37 °C, kinetic from dmso stock
[1] = read-out: IC50 MCF7, 48 h of treatment
[2] = read-out: IC50 M21, 48 h of treatment
[3] = read-out: IC50 HT-29, 48 h of treatment
[4] = read-out: IC50 THP-1, 48 h of treatment
[5] = read-out: IC50 HL-60, 48 h of treatment
[6] = Homo sapiens, MCF7, 48 h, read-out: IC50 MCF7, 48 h of treatment
[7] = Homo sapiens, M21, 48 h, read-out: IC50 M21, 48 h of treatment
[8] = Homo sapiens, HT-29, 48 h, read-out: IC50 HT-29, 48 h of treatment
[9] = Homo sapiens, THP-1, 48 h, read-out: IC50 THP-1, 48 h of treatment
[10] = Homo sapiens, HL-60, 48 h, read-out: IC50 HL-60, 48 h of treatment

SMILES | IC50 (MCF7; [1]) [µM] | IC50 (HT-29; [3]) [µM] | IC50 (HT-1080) [µM] | IC50 (MOLM-13) [µM] | IC50 (THP-1; [4]) [µM] | IC50 (HL-60; [5]) [µM] | solubility at 24 h (physchem) [µg/mL] | IC50 (MCF7; [6]) [µM] | IC50 (HT-29; [8]) [µM] | IC50 (THP-1; [9]) [µM] | IC50 (HL-60; [10]) [µM] | IC50 (M21; [2]) [µM] | IC50 (M21; [7]) [µM]
CCNC(=O)Nc1ccc(S(=O)(=O)Oc2cccnc2Br)cc1 [Compound 1, 2-Bromopyridin-3-yl 4-(3-ethylureido)benzenesulfonate] | 31 ± 3 | 9.7 ± 0.7 | 2.1 ± 0.3 | 1.1 ± 0.2 | 7 ± 1 | 40 ± 10 | 64 ± 1 (≈ 160 µM) |  |  |  |  | 12 ± 1 | 
CCNC(=O)Nc1ccc(S(=O)(=O)Oc2cccnc2C)cc1 [Compound 4, 2-Methylpyridin-3-yl 4-(3-ethylureido)benzenesulfonate] | 20 ± 3 | 56 ± 3 | 10.2 ± 0.8 | 6 ± 2 | 4.4 ± 0.2 | 50 ± 10 | 55 ± 1 (≈ 164 µM) |  |  |  |  | 79 ± 4 | 
CCCNC(=O)Nc1ccc(S(=O)(=O)Oc2cccnc2Br)cc1 [Compound 5, 2-Bromopyridin-3-yl 4-(3-propylureido)benzenesulfonate] | 13 ± 1 | 17 ± 1 | 3.3 ± 0.2 | 2.6 ± 0.1 | 5.9 ± 0.5 | 19 ± 2 | 8 ± 1 (≈ 19.3 µM) |  |  |  |  | 24 ± 2 | 
CCCNC(=O)Nc1ccc(S(=O)(=O)Oc2cccnc2I)cc1 [Compound 6, 2-Iodopyridin-3-yl 4-(3-propylureido)benzenesulfonate] | 13 ± 1 | 16 ± 1 | 2 ± 0.2 | 2.2 ± 0.3 | 2.4 ± 0.1 | 24 ± 5 | 23 ± 2 (≈ 49.9 µM) |  |  |  |  | 17 ± 1 | 
CCCNC(=O)Nc1ccc(S(=O)(=O)Oc2cccnc2C(C)C)cc1 [Compound 7, 2-Isopropylpyridin-3-yl 4-(3-propylureido)benzenesulfonate] |  |  |  |  |  | 24 ± 4 | 7 ± 1 (≈ 18.5 µM) | 17 ± 1 | 14 ± 1 | 2.6 ± 0.6 |  |  | 22 ± 2
CCCNC(=O)Nc1ccc(S(=O)(=O)Oc2cccnc2C)cc1 [Compound 8, 2-Methylpyridin-3-yl 4-(3-propylureido)benzenesulfonate] |  |  | 5.1 ± 0.5 |  |  | 35 ± 7 | 44 ± 1 (≈ 126 µM) | 19 ± 2 | 70 ± 8 | 3.5 ± 0.9 |  |  | 69 ± 3
O=C(NCCCl)Nc1ccc(S(=O)(=O)Oc2cccnc2Br)cc1 [Compound 9, 2-Bromopyridin-3-yl 4-(3-(2-chloroethyl)ureido)benzenesulfonate] |  |  |  |  | 1.2 ± 0.5 | 12 ± 1 | 56 ± 2 (≈ 129 µM) | 16 ± 1 | 17 ± 1 |  |  |  | 23 ± 1
O=C(NCCCl)Nc1ccc(S(=O)(=O)Oc2cccnc2I)cc1 [Compound 10, 2-Iodopyridin-3-yl 4-(3-(2-chloroethyl)ureido)benzenesulfonate] | 5 ± 1 | 9 ± 1 |  |  |  | 6.9 ± 0.3 | 4.4 ± 0.1 (≈ 9.13 µM) |  |  | 1 ± 0.1 |  |  | 9 ± 1
CC(C)c1ncccc1OS(=O)(=O)c1ccc(NC(=O)NCCCl)cc1 [Compound 11, 2-Isopropylpyridin-3-yl 4-(3-(2-chloroethyl)ureido)benzenesulfonate] |  |  |  |  |  | 27 ± 6 | 41 ± 3 (≈ 103 µM) | 17 ± 1 | 14 ± 1 | 2.3 ± 0.9 |  | 20 ± 1 | 
CCNC(=O)Nc1ccc(S(=O)(=O)Oc2cnccc2Br)cc1 [Compound 12, 4-Bromopyridin-3-yl 4-(3-ethylureido)benzenesulfonate] |  |  |  |  |  |  | 64 ± 1 (≈ 160 µM) | 32 ± 4 | 25 ± 1 | 4 ± 0.6 | > 50 | 21 ± 1 | 
CCNC(=O)Nc1ccc(S(=O)(=O)Oc2cnccc2I)cc1 [Compound 13, 4-Iodopyridin-3-yl 4-(3-ethylureido)benzenesulfonate] |  |  |  |  |  |  | 63 ± 1 (≈ 141 µM) | 15 ± 2 | 12 ± 1 | 1.8 ± 0.5 | 25 ± 7 |  | 9 ± 1
CCNC(=O)Nc1ccc(S(=O)(=O)Oc2cnccc2C)cc1 [Compound 14, 4-Methylpyridin-3-yl 4-(3-ethylureido)benzenesulfonate] |  |  |  |  | 6 ± 2 |  | 49 ± 4 (≈ 146 µM) | 31 ± 3 | 16 ± 1 |  | > 100 |  | 31 ± 3

More lines, main results first:

IC50 (MCF7; [1]) [µM] | IC50 (HT-29; [3]) [µM] | IC50 (HT-1080) [µM] | IC50 (MOLM-13) [µM] | IC50 (THP-1; [4]) [µM] | IC50 (HL-60; [5]) [µM] | solubility at 24 h (physchem) [µg/mL] | IC50 (MCF7; [6]) [µM] | IC50 (HT-29; [8]) [µM] | IC50 (THP-1; [9]) [µM] | IC50 (HL-60; [10]) [µM] | SMILES | IC50 (M21; [2]) [µM] | IC50 (M21; [7]) [µM]
 |  | 4.1 ± 0.3 |  |  |  | 35 ± 3 (≈ 84.5 µM) | 12 ± 1 | 19 ± 1 | 6 ± 1 | 21 ± 5 | CCCNC(=O)Nc1ccc(S(=O)(=O)Oc2cnccc2Br)cc1 [Compound 15, 4-Bromopyridin-3-yl 4-(3-propylureido)benzenesulfonate] |  | 28 ± 2
5 ± 1 | 6.9 ± 0.5 |  | 1.3 ± 0.3 |  | 18 ± 4 | 53 ± 6 (≈ 115 µM) |  |  | 1.5 ± 0.4 |  | CCCNC(=O)Nc1ccc(S(=O)(=O)Oc2cnccc2I)cc1 [Compound 16, 4-Iodopyridin-3-yl 4-(3-propylureido)benzenesulfonate] | 9.7 ± 0.9 | 
12 ± 1 | 12 ± 1 | 7.5 ± 0.5 | 4 ± 0.6 |  | 43 ± 7 | 52 ± 2 (≈ 149 µM) |  |  | 7.3 ± 0.8 |  | CCCNC(=O)Nc1ccc(S(=O)(=O)Oc2cnccc2C)cc1 [Compound 17, 4-Methylpyridin-3-yl 4-(3-propylureido)benzenesulfonate] | 24 ± 1 | 
 |  |  |  |  |  | 24 ± 2 (≈ 49.8 µM) | 2.8 ± 0.4 | 2.7 ± 0.2 | 1.2 ± 0.3 | 3 ± 1 | O=C(NCCCl)Nc1ccc(S(=O)(=O)Oc2cnccc2I)cc1 [Compound 18, 4-Iodopyridin-3-yl 4-(3-(2-chloroethyl)ureido)benzenesulfonate] |  | 2.8 ± 0.3
 | 26 ± 2 |  |  |  | > 100 | 173 ± 2 | 28 ± 2 |  | 7 ± 3 |  | CCNC(=O)Nc1ccc(S(=O)(=O)Oc2cccnc2Br)cc1.Cl [Compound 19, 2-Bromopyridin-3-yl 4-(3-ethylureido)benzenesulfonate hydrochloride] | 27 ± 2 | 
51 ± 5 |  | 26 ± 2 |  |  |  | 152 ± 4 |  | > 100 | 5 ± 2 | 60 ± 20 | CCNC(=O)Nc1ccc(S(=O)(=O)Oc2cccnc2C)cc1.Cl [Compound 22, 2-Methylpyridin-3-yl 4-(3-ethylureido)benzenesulfonate hydrochloride] |  | > 100
 | 42 ± 2 |  |  |  |  | 79 ± 9 | 22 ± 2 |  | 10 ± 0.3 | 37 ± 7 | CCCNC(=O)Nc1ccc(S(=O)(=O)Oc2cccnc2Br)cc1.Cl [Compound 23, 2-Bromopyridin-3-yl 4-(3-propylureido)benzenesulfonate hydrochloride] |  | 45 ± 2
 |  |  |  |  |  | 120 ± 10 | 22 ± 2 | 28 ± 2 | 3.9 ± 0.7 | 30 ± 10 | CCCNC(=O)Nc1ccc(S(=O)(=O)Oc2cccnc2I)cc1.Cl [Compound 24, 2-Iodopyridin-3-yl 4-(3-propylureido)benzenesulfonate hydrochloride] |  | 29 ± 2
16 ± 1 | 15 ± 0.8 | 2.4 ± 0.2 | 1.9 ± 0.5 | 2.4 ± 0.9 | 8 ± 3 | 26 ± 3 |  |  |  |  | CCCNC(=O)Nc1ccc(S(=O)(=O)Oc2cccnc2C(C)C)cc1.Cl [Compound 25, 2-Isopropylpyridin-3-yl 4-(3-propylureido)benzenesulfonate hydrochloride] | 20 ± 1 | 
